Values quoted from earlier work in patent US9358213B2, “Pharmaceutical compositions of duloxetine” (priority 2007, dated 2016).

For CNCC[C@H](Oc1cccc2ccccc12)c1cccs1 [Duloxetine], the “stability at alkaline pH” value (alkaline pH) is listed as “stable”, the “dosage hydrolyzed to 1-naphthol” value (pH of 1.0, within one hour) is listed as 50% and the “dosage degrades to 1-naphthol” value (pH of 2.0, in one hour) is listed as 10%. For the same compound, the “time for 10% degradation” value (pH of 4.0) was “up to 63 hours”.
